Results: patent US11339502B2, “Combinatorial derivatives of oligopeptides having antiviral properties” (priority 2017, dated 2022)

Tests used:
Format in all cases: cell-based
[1] = test system: H1N1 influenza virus
[2] = test system: herpes simplex virus type 1 (strain L-2)
[3] = test system: vesicular stomatitis virus (reference strain)

KKRKRKRKR [derivative 54]
0%: % cytoprotective antiviral activity, Inf [1] | % cytoprotective antiviral activity, Herp [2] | % cytoprotective antiviral activity, Vesic [3]
